Values after ≈ are worked out from the molar mass of the structure shown. Read-outs that look alike come from different tables or passages of the source.
Experiments:
[1] = Determination of aqueous solubility (precipitate formation after 100-fold dilution of DMSO stock solutions); type: physicochemical; conditions: kinetic from dmso stock
Method: Determination of Aqueous Solubility
The compounds are dissolved in DMSO to give 10 mg/ml stock solutions. These stock solutions are divided over several plates. Several diluted concentrations are made with DMSO to 5, 2.5, 1.25, 0.625 and 0.3125 mg/ml, respectively. The stock solution and each derived concentration from this stock solution is taken and diluted 100 fold with water or with water containing a buffer. In every case this gives an aqueous solution which contains 1% DMSO (v/v) and 100, 50, 25, 12.5 and 6.25 and 3.125 μg compound/ml, respectively. The formation of a precipitate is determined in each plate. The measurements were performed at pH=7, applying a HEPES buffer and at pH=2, applying hydrochloric acid. Aqueous solubility is expressed in μg/ml in the table below.
Aqueous solubilities of two of the compounds of general formula (I), the compounds 1 and 4, and the compound 1-(4-chlorophenyl)-2-(2,4-dichloro-phenyl)-N-cyclohexyl-1H-imidazole-4-carboxamide (compound 3 from WO 03/063781) were determined according to the procedure described above.

[2] = biological target: T1, human cannabinoid CB1 receptor (Homo sapiens, UniProt P21554); assay: In vitro affinity for cannabinoid-CB1 receptors ([3H]CP-55,940 radioligand, CHO cell membrane preparations); type: binding; conditions: CHO cell membranes, stably transfected human CB1, [3H]CP-55,940; read-out: Human cannabinoid-CB1 receptor In vitro affinity - pKi value (converted)
T1 construct: expressed in transfected cells; host or cells: Chinese hamster ovary (CHO) cells, stably transfected; membrane preparations
Method: In Vitro Affinity for Cannabinoid-CB1 Receptors
The affinity of the compounds of the invention for cannabinoid CB1 receptors can be determined using membrane preparations of Chinese hamster ovary (CHO) cells in which the human cannabinoid CB1 receptor is stably transfected in conjunction with [^3H]CP-55,940 as radioligand. After incubation of a freshly prepared cell membrane preparation with the [^3H]-ligand, with or without addition of compounds of the invention, separation of bound and free ligand is performed by filtration over glassfiber filters. Radioactivity on the filter is measured by liquid scintillation counting.
Pharmacological test results of a subset of the compounds of the invention, obtained with the assay described above, are given in table 2 below: […]

T1 sequence (P21554 whole entry): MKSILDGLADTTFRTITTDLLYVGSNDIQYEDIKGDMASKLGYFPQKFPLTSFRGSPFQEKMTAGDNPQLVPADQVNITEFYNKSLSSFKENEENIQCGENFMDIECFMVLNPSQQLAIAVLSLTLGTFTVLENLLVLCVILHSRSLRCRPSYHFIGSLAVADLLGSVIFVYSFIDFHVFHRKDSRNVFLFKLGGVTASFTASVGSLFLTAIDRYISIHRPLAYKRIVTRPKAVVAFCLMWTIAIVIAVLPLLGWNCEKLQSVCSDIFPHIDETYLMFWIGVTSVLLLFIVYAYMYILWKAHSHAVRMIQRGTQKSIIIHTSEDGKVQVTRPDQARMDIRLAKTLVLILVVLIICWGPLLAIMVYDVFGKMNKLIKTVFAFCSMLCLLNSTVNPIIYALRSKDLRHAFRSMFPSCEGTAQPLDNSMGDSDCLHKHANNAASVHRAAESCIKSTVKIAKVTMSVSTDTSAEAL

Row | SMILES | solubility ([1]; pH 2, simulated gastric fluid) | solubility ([1]; pH 7, aqueous buffer) | melting point | Ki [2] | solubility ([1]; aqueous buffer, pH = 7, HEPES buffer, 1% DMSO (v/v), read-out: Aqueous solubility in μg/ml at pH = 7) | solubility ([1]; simulated gastric fluid, pH = 2, hydrochloric acid, 1% DMSO (v/v), read-out: Aqueous solubility in μg/ml at pH = 2)
1 | O=C(NC1CCCCC1)c1cn(-c2ccc(Cl)cc2)c(-c2ccc(Cl)cc2Cl)n1 [1-(4-chlorophenyl)-2-(2,4-dichloro-phenyl)-N-cyclohexyl-1H-imidazole-4-carboxamide, reference compound] | 25 µg/mL (≈ 55.7 µM) | 25 µg/mL (≈ 55.7 µM) |  |  |  | 
2 | O=C(NC1CCCCC1)c1nc(-c2ccc(Cl)cc2Cl)n(-c2ccc(Cl)cc2)c1CN1CCCC1 [Compound 1, N-cyclohexyl-1-(4-chlorophenyl)-2-(2,4-dichlorophenyl)-5-(pyrrolidin-1-ylmethyl)-1H-imidazole-4-carboxamide] | > 100 µg/mL | 50 µg/mL (≈ 94 µM) | 155 to 157 °C | 7.94 nM |  | 
3 | CCN(C)Cc1c(C(=O)NC2CCCCC2)nc(-c2ccc(Cl)cc2Cl)n1-c1ccc(Cl)cc1 [Compound 2, N-cyclohexyl-1-(4-chlorophenyl)-2-(2,4-dichlorophenyl)-5-(N-ethyl,N-methylaminomethyl)-1H-imidazole-4-carboxamide] |  |  | 135 to 136 °C | 6.31 nM |  | 
4 | CN(C)Cc1c(C(=O)NN2CCCCC2)nc(-c2ccc(Cl)cc2Cl)n1-c1ccc(Cl)cc1 [Compound 3, N-(piperidin-1-yl)-1-(4-chlorophenyl)-2-(2,4-dichlorophenyl)-5-(N,N-dimethylaminomethyl)-1H-imidazole-4-carboxamide] |  |  | 163 to 166 °C | 100 nM |  | 
5 | CN(C)Cc1c(C(=O)NC2CCCCC2)nc(-c2ccc(Cl)cc2Cl)n1-c1ccc(Cl)cc1 [Compound 4, N-cyclohexyl-1-(4-chlorophenyl)-2-(2,4-dichlorophenyl)-5-(N,N-dimethylaminomethyl)-1H-imidazole-4-carboxamide] |  |  |  | 31.6 nM | 50 µg/mL (≈ 98.8 µM) | > 100 µg/mL
6 | CCN(C)Cc1c(C(=O)NN2CCCCC2)nc(-c2ccc(Cl)cc2Cl)n1-c1ccc(Cl)cc1 [Compound 6, N-(piperidin-1-yl)-1-(4-chlorophenyl)-2-(2,4-dichlorophenyl)-5-(N-ethyl, N-methylaminomethyl)-1H-imidazole-4-carboxamide] |  |  |  | 126 nM |  | 

— patent US7498348B2, “1 H-imidazole derivatives as cannabinoid receptor modulators” (Solvay Pharmaceuticals, Inc., priority 2003, dated 2009)
